Assays:
[1] = test system: tobacco leaf explants; test: Shoot organogenesis from tobacco leaf explants in vitro (Experiment 4); format: cell-based, Nicotiana tabacum L. cv. Petit Havana SRI; details: 8 weeks
[2] = test system: tomato cotyledon explants; test: Root regeneration from tomato cotyledon explants in vitro (Experiment 2); format: cell-based, tomato cultivar Roma VF; details: 0.05 and 0.1 mg/L, no other hormones; for organogenesis from tomato cotyledon explants (root formation): within 7 days
Description: Seeds of tomato cultivar Roma VF were sterilized by treating with 75% ethanol for 30 seconds at room temperature and washed with sterile water for five times. The seeds were then treated with 15% sodium hypochlorite for 10 minutes and washed five times in sterile water. The sterilized seeds were germinated on half-strength Murashige and Skoog (MS) medium in vitro. Cotyledons from 10-day old seedlings before first true leaves emerged were used as starting explants in all the experiments. The base and tip of the cotyledons were excised and the explants were transferred with the abaxial surface in contact with the culture medium. The basic culture medium consists of MS medium with vitamins supplemented with 30 g/L sucrose and gelled with 0.8% agar, and the pH of the medium was adjusted to 5.8±0.2. Plates were maintained at a light cycle of 16/8 hours day/night, temperature of 26/24° C. day/night, and relative humidity of 70% and subcultured on the same media after 14 days. Observations were made on 7, 14, 21 and 28 days of growth. All experiments were conducted with at least three replicates of 10 explants each.
In order to analyze the effect of TAA on root regeneration, the basic media were supplemented with different concentrations of TAA (0.05 and 0.1 mg/L) and further compared with individual effect of widely used auxins (IAA, NAA, IBA, 2,4 D) at similar concentrations.

[3] = test system: tomato cotyledon explants; test: Shoot regeneration from tomato cotyledon explants with 1 mg/L BAP (Experiment 3); format: cell-based, tomato cultivar Roma VF
Excerpt: The sterilized seeds were germinated on half-strength Murashige and Skoog (MS) medium in vitro. Cotyledons from 10-day old seedlings before first true leaves emerged were used as starting explants in all the experiments. The base and tip of the cotyledons were excised and the explants were transferred with the abaxial surface in contact with the culture medium. The basic culture medium consists of MS medium with vitamins supplemented with 30 g/L sucrose and gelled with 0.8% agar, and the pH of the medium was adjusted to 5.8±0.2. […] All experiments were conducted with at least three replicates of 10 explants each.
To analyse the effects on shoot regeneration, the basic media was supplemented with 1 mg/L BAP and different concentrations of TAA, IAA, NAA, IBA and 2,4 D (0.05, 0.1, 0.5, 1.0 and 2.0 mg/L) individually. Since there are no previous reports on suitable concentration ranges for TAA in tomato regeneration, concentrations at 50.0, 100.0, 200.0 and 300.0 mg/L were analysed additionally for TAA.

[4] = test system: WT Arabidopsis seedlings; test: Root growth of WT Arabidopsis seedlings (Experiment 6); format: in vivo, A. thaliana; details: Arabidopsis thaliana, 144 h; 6 days growth, 8-day-old seedlings; read-out: concentration that reduced the primary root length to 50% of control
Description: (§1) Arabidopsis Columbia-0 wild type (WT) was used for assessing the effect of TAA on root growth and its effects on the expression of auxin-responsive genes. Seeds of A. thaliana were surface sterilized by suspending in 70% ethanol for 1 minute, followed by treatment with 10% bleach for 20 minutes. After thorough washing with sterile distilled water, the sterilized seeds were plated onto germination medium (half-strength Murashige and Skoog basal medium with vitamins (1/2 MS) medium supplemented with 1% sucrose and 0.7% plant agar) for germination. Germination was initiated by incubating the seeds in darkness at 5° C. for 2 days, followed by transfer to a light environment at 22° C. with a photoperiod of 16-h light/8-h dark for further growth. Stock solutions of TAA were prepared in DMSO (dimethyl sulfoxide). In control treatments, DMSO was used in equal amounts as present in the greatest concentration of TAA tested.
To analyze the effect of TAA on root growth, WT Arabidopsis seedlings were germinated as described and uniform-looking 8-day-old seedlings were transferred to germination medium supplemented with different concentrations of TAA (0.1, 1, 2, 5, 10, 25, 50, and 100 μM) or NAA/IAA/IBA (0.05, 0.1, 1, 2 and 5 μM). For IBA, two additional concentrations (10 and 25 μM) were also analyzed. Seedlings grown on media supplemented with an equal volume of DMSO were used as control. The seedlings were allowed to grow for 6 days and the plates were photographed at 24 h intervals. Primary root length was measured using Image J software. The difference in the number of lateral roots (LR) and root hairs was visually observed. Microscopic images were taken on a Leica Thunder Imager System (Leica Microsystems Ltd., Switzerland) and the images were processed with LAS X software.

[5] = test system: WT Arabidopsis seedlings; test: Root growth of WT Arabidopsis seedlings in the presence of NPA (Experiment 7); format: in vivo, A. thaliana; details: NPA even at low concentrations (0.5 μM)
Description: as §1
To analyze the effect of TAA on root growth in the presence of NPA (N-1-naphthylphthalamic acid), WT Arabidopsis seedlings were germinated as described and uniform-looking 8-day-old seedlings were transferred to germination medium supplemented with different concentrations of TAA (5 and 10 μM) and different concentrations of NPA (0, 0.5, 1, 2, 4, and 8 μM). The seedlings were allowed to grow for 6 days and the plates were photographed at 24 h intervals. […]

[6] = basic shoot regeneration media: 3% MS media + 2 mg/L kinetin
[7] = 1 mg/L IAA added to 3% MS + 2 mg/L kinetin

c1coc(CNc2ncnc3[nH]cnc23)c1 [kinetin, reference compound]
average number of shoots per explant [1, 6]: 3.10 | total number of shoots regenerated per plate [1, 6]: 21.7

O=C(O)CCCc1c[nH]c2ccccc12 [IBA, indole-3-butyric acid]
organogenesis from tomato cotyledon explants (root formation) [2]: rapid root formation | shoot organogenesis ([3]; 0.05, 0.1 and 0.5 mg/L with 1 mg/L BAP): callus and well-defined shoot formation | shoot organogenesis ([3]; 1.0 and 2.0 mg/L with 1 mg/L BAP): mostly callus and some root formation | IC50 [4]: 10000 nM

O=C(O)COc1ccc(Cl)cc1Cl [2,4D, 2,4-dichlorophenoxyacetic acid]
organogenesis from tomato cotyledon explants ([2]; by Day 14): formed more callus and few of the explants showed longer roots | organogenesis from tomato cotyledon explants (root formation) [2]: the explants enlarged in size and started showing signs of callus formation | shoot organogenesis ([3]; 0.05, 0.1, 0.5, 1.0 and 2.0 mg/L with 1 mg/L BAP): did not show any shoot formation

O=C(O)Cc1c[nH]c2ccccc12 [IAA, indole-3-acetic acid, reference compound]
organogenesis from tomato cotyledon explants (root formation) [2]: rapid root formation | shoot organogenesis ([3]; 2 mg/L with 1 mg/L BAP): mostly callus and root formation | shoot organogenesis ([3]; 0.05, 0.1, 0.5 and 1.0 mg/L with 1 mg/L BAP): better shoot formation than NAA | IC50 [4]: 100 nM | increase of number of shoots regenerated per explant versus basic shoot regeneration media [1, 7]: more than 3 times | increase of total number of shoots regenerated versus basic shoot regeneration media [1, 7]: more than 3 times

O=C(O)Cc1cccc2ccccc12 [NAA, naphthalene-1-acetic acid]
organogenesis from tomato cotyledon explants (root formation) [2]: rapid root formation | shoot organogenesis ([3]; 0.05 mg/L with 1 mg/L BAP): most explants produced callus, but a few produced shoots | shoot organogenesis ([3]; higher concentrations (above 0.05 up to 2.0 mg/L) with 1 mg/L BAP, Day 28): mostly callus by Day 28, but a few of them showed root formation | IC50 [4]: 50 nM

O=C(O)c1ccccc1C(=O)Nc1cccc2ccccc12 [NPA, N-1-naphthylphthalamic acid, reference compound]
primary root length and number of LR [5]: reduced primary root length and the number of LR

Reference: US20250072423A1, “THIOPHENE ACETIC ACID FOR PLANT GROWTH REGULATION” (priority 2023, published 2025)
